Key:
Assay type in all cases: cell-based
rat GAT1 (rGAT1) = molecular target: T1, rat GAT1 (rGAT1) (Rattus norvegicus, UniProt P23978); experiment: TEVC transport currents in Xenopus oocytes; LC-MS/MS uptake; [3H]-GABA efflux in HEK293-rGAT1 cells
T1 construct: gene Slc6a1

human GAT1 (hGAT1) = molecular target: T2, human GAT1 (hGAT1) (Homo sapiens, UniProt P30531); experiment: automated whole-cell patch clamp (Patchliner) on CHO cells overexpressing hGAT1
T2 construct: gene SLC6A1

canine BGT-1 (cBGT-1) = molecular target: T3, canine BGT-1 (cBGT-1) (Canis lupus, UniProt P27799); experiment: TEVC transport currents in Xenopus oocytes
T3 construct: gene SLC6A12
T3 sequence (P27799 1-614): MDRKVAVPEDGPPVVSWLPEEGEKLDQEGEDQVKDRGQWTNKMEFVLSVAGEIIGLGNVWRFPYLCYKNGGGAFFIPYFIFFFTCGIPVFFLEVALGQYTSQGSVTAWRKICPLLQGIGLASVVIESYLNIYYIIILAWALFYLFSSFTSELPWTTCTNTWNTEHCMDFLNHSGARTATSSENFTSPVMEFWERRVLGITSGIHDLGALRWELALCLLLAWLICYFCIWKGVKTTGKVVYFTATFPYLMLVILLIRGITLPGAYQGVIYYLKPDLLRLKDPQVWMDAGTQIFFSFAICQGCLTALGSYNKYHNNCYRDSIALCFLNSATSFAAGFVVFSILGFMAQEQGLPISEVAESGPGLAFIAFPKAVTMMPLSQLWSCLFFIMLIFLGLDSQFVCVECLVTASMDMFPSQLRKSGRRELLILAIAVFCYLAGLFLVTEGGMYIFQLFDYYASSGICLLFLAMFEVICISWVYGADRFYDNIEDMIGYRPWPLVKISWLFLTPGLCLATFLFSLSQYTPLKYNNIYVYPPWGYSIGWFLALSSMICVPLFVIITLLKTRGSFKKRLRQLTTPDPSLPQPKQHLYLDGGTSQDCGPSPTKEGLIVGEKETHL

T2 sequence (P30531 whole entry): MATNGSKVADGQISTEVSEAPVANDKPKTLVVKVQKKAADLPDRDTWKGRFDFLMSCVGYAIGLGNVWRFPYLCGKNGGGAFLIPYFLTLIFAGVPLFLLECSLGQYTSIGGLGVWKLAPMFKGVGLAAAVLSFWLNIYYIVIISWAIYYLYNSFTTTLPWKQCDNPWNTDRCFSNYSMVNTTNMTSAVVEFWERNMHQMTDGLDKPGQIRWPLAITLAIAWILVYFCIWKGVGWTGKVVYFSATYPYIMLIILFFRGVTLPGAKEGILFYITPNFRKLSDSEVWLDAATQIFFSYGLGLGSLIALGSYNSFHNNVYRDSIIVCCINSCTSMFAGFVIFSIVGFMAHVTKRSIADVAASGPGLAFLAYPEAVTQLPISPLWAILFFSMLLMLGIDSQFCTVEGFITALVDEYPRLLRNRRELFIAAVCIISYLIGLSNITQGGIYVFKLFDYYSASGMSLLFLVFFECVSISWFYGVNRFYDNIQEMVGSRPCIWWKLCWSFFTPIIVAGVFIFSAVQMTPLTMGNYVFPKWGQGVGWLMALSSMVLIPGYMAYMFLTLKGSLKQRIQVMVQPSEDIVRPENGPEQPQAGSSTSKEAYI

For `C[N+](C)(C)CC(=O)O` [Betaine], the EC50 (rat GAT1 (rGAT1)) was 11.6 mM, the EC50 (human GAT1 (hGAT1)) was roughly 27 mM and the EC50 (canine BGT-1 (cBGT-1)) was 1.69 mM.
